From ChEMBL document CHEMBL2434921, “New synthetic aliphatic sulfonamido-quaternary ammonium salts as anticancer chemotherapeutic agents” (2013)
Activity calls are given as the source filed them. No cut-off for these calls is given here.

Assays:
[1] = system: MDA-MB-231; assay: Growth of human MDA-MB-231 cells at 10 uM after 48 hrs by SRB assay; conditions: MDA-MB-231, 48 h
[2] = system: NCI-H23; assay: Growth inhibition of human NCI-H23 cells at 1 uM after 48 hrs by SRB assay; values are per cent of control; conditions: NCI-H23, 48 h
[3] = system: NUGC-3; assay: Growth inhibition of human NUGC3 cells after 48 hrs by SRB assay; type: functional; conditions: NUGC-3, 48 h
[4] = system: NUGC-3; assay: Growth of human NUGC3 cells at 1 uM after 48 hrs by SRB assay; conditions: NUGC-3, 48 h
[5] = system: PC-3; assay: Growth of human PC3 cells at 10 uM after 48 hrs by SRB assay; conditions: PC-3, 48 h
[6] = system: NCI-H23; assay: Growth inhibition of human NCI-H23 cells at 0.1 uM after 48 hrs by SRB assay; values are per cent of control; conditions: NCI-H23, 48 h
[7] = system: ACHN; assay: Growth of human ACHN cells at 0.1 uM after 48 hrs by SRB assay
[8] = system: MDA-MB-231; assay: Growth inhibition of human MDA-MB-231 cells at 0.3 uM after 48 hrs by SRB assay; values are per cent of control; conditions: MDA-MB-231, 48 h
[9] = system: PC-3; assay: Growth inhibition of human PC3 cells at 0.1 uM after 48 hrs by SRB assay; values are per cent of control; conditions: PC-3, 48 h
[10] = system: ACHN; assay: Growth inhibition of human ACHN cells at 3 uM after 48 hrs by SRB assay; values are per cent of control
[11] = system: HCT-15; assay: Growth inhibition of human HCT15 cells after 48 hrs by SRB assay; type: functional; conditions: HCT-15, 48 h
[12] = system: PC-3; assay: Growth inhibition of human PC3 cells at 0.3 uM after 48 hrs by SRB assay; values are per cent of control; conditions: PC-3, 48 h
[13] = system: NCI-H23; assay: Growth of human NCI-H23 cells at 10 uM after 48 hrs by SRB assay; conditions: NCI-H23, 48 h
[14] = system: HCT-15; assay: Growth of human HCT15 cells at 0.3 uM after 48 hrs by SRB assay; conditions: HCT-15, 48 h
[15] = system: NUGC-3; assay: Growth of human NUGC3 cells at 0.1 uM after 48 hrs by SRB assay; conditions: NUGC-3, 48 h
[16] = target: Rho-related GTP-binding protein RhoB (Homo sapiens) (UniProt P62745); assay: Transactivation of RhoB (unknown origin) transfected in human HeLa cells at 5 uM measured over 10 secs by dual luciferase reporter gene assay; type: cell-based
Chain of Rho-related GTP-binding protein RhoB (Homo sapiens) (P62745 whole entry): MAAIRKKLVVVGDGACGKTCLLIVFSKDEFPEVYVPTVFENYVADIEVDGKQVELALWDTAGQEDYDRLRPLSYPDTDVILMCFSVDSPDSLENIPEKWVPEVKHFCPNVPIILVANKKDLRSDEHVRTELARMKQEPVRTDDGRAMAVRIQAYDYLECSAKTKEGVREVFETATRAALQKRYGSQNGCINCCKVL

[17] = system: ACHN; assay: Growth inhibition of human ACHN cells at 1 uM after 48 hrs by SRB assay; values are per cent of control
[18] = system: MDA-MB-231; assay: Growth of human MDA-MB-231 cells at 3 uM after 48 hrs by SRB assay; values are per cent of control; conditions: MDA-MB-231, 48 h
[19] = system: MDA-MB-231; assay: Growth of human MDA-MB-231 cells at 0.1 uM after 48 hrs by SRB assay; conditions: MDA-MB-231, 48 h
[20] = system: ACHN; assay: Growth of human ACHN cells at 10 uM after 48 hrs by SRB assay
[21] = system: HCT-15; assay: Growth inhibition of human HCT15 cells at 0.1 uM after 48 hrs by SRB assay; values are per cent of control; conditions: HCT-15, 48 h
[22] = system: NCI-H23; assay: Growth inhibition of human NCI-H23 cells at 3 uM after 48 hrs by SRB assay; values are per cent of control; conditions: NCI-H23, 48 h
[23] = system: ACHN; assay: Growth of human ACHN cells at 0.3 uM after 48 hrs by SRB assay
[24] = system: PC-3; assay: Growth inhibition of human PC3 cells at 1 uM after 48 hrs by SRB assay; values are per cent of control; conditions: PC-3, 48 h
[25] = system: HCT-15; assay: Growth inhibition of human HCT15 cells at 1 uM after 48 hrs by SRB assay; values are per cent of control; conditions: HCT-15, 48 h
[26] = system: PC-3; assay: Growth inhibition of human PC3 cells after 48 hrs by SRB assay; type: functional; conditions: PC-3, 48 h
[27] = system: PC-3; assay: Growth inhibition of human PC3 cells at 3 uM after 48 hrs by SRB assay; values are per cent of control; conditions: PC-3, 48 h
[28] = system: MDA-MB-231; assay: Growth of human MDA-MB-231 cells at 1 uM after 48 hrs by SRB assay; conditions: MDA-MB-231, 48 h
[29] = system: NCI-H23; assay: Growth of human NCI-H23 cells at 0.3 uM after 48 hrs by SRB assay; conditions: NCI-H23, 48 h
[30] = system: HCT-15; assay: Growth of human HCT15 cells at 3 uM after 48 hrs by SRB assay; conditions: HCT-15, 48 h
[31] = system: HCT-15; assay: Growth inhibition of human HCT15 cells at 10 uM after 48 hrs by SRB assay; values are per cent of control; conditions: HCT-15, 48 h
[32] = system: MDA-MB-231; assay: Growth inhibition of human MDA-MB-231 cells after 48 hrs by SRB assay; type: functional; conditions: MDA-MB-231, 48 h
[33] = system: ACHN; assay: Growth inhibition of human ACHN cells after 48 hrs by SRB assay; type: functional
[34] = system: NUGC-3; assay: Growth inhibition of human NUGC3 cells at 10 uM after 48 hrs by SRB assay; values are per cent of control; conditions: NUGC-3, 48 h
[35] = system: NUGC-3; assay: Growth inhibition of human NUGC3 cells at 3 uM after 48 hrs by SRB assay; values are per cent of control; conditions: NUGC-3, 48 h
[36] = system: NUGC-3; assay: Growth of human NUGC3 cells at 0.3 uM after 48 hrs by SRB assay; conditions: NUGC-3, 48 h
[37] = system: NCI-H23; assay: Growth inhibition of human NCI-H23 cells after 48 hrs by SRB assay; type: functional; conditions: NCI-H23, 48 h

| SMILES | growth, % of control at 10 µM [1] | growth, % of control at 1 µM [2] | GI50 [3] | growth, % of control at 1 µM [4] | growth, % of control at 10 µM [5] | growth, % of control at 0.1 µM [6] | growth, % of control at 0.1 µM [7] | growth, % of control at 0.3 µM [8] | growth, % of control at 0.1 µM [9] | growth, % of control at 3 µM [10] | GI50 [11] | growth, % of control at 0.3 µM [12] | growth, % of control at 10 µM [13] | growth, % of control at 0.3 µM [14] | growth, % of control at 0.1 µM [15] | Activity [16] | growth, % of control at 1 µM [17] | growth, % of control at 3 µM [18] | growth, % of control at 0.1 µM [19] | growth, % of control at 10 µM [20] | other results |
| --- | --- | --- | --- | --- | --- | --- | --- | --- | --- | --- | --- | --- | --- | --- | --- | --- | --- | --- | --- | --- | --- |
| CCCCCCCCCCCCCCS(=O)(=O)NCCC[N+](C)(C)C [TRIMETHYL-[3-(TETRADECANE-1-SULFONYLAMINO)-PROPYL]-AMMONIUM IODIDE] | 25.1% | 48.4% | 380 nM | 43.1% | -7.8% | 84.7% | 88% | 86.4% | 86.7% | 49.9% | 940 nM | 80.6% | -34.5% | 91.2% | 84.4% | Active | 96.8% | 45.3% | 84.6% | 29.7% | growth, % of control at 0.1 µM [21]: 94.3%; growth, % of control at 3 µM [22]: -5.1%; growth, % of control at 0.3 µM [23]: 88.6%; growth, % of control at 1 µM [24]: 52.2%; growth, % of control at 1 µM [25]: 66.5%; GI50 [26]: 450 nM; growth, % of control at 3 µM [27]: 9.5%; growth, % of control at 1 µM [28]: 76.7%; growth, % of control at 0.3 µM [29]: 86.5%; growth, % of control at 3 µM [30]: 31.5%; growth, % of control at 10 µM [31]: 22%; GI50 [32]: 1400 nM; GI50 [33]: 2040 nM; growth, % of control at 10 µM [34]: 5.4%; growth, % of control at 3 µM [35]: 21.5%; growth, % of control at 0.3 µM [36]: 73.2%; GI50 [37]: 460 nM |
| CCCCCCCCCCCCCCS(=O)(=O)N(C)CC[N+](C)(C)C | 7.8% | 86.3% | 390 nM | 34.4% | -14.3% | 94.5% | 107% | 98.2% | 92% | 47.2% | 750 nM | 93.6% | 23.7% | 97.5% | 92.4% | Active | 71.6% | 35.3% | 99.1% | 21.3% | growth, % of control at 0.1 µM [21]: 95.7%; growth, % of control at 3 µM [22]: 59.1%; growth, % of control at 0.3 µM [23]: 100%; growth, % of control at 1 µM [24]: 45.1%; growth, % of control at 1 µM [25]: 55.6%; GI50 [26]: 470 nM; growth, % of control at 3 µM [27]: 11.4%; growth, % of control at 1 µM [28]: 66.3%; growth, % of control at 0.3 µM [29]: 100%; growth, % of control at 3 µM [30]: 26.9%; growth, % of control at 10 µM [31]: 20.2%; GI50 [32]: 920 nM; GI50 [33]: 1400 nM; growth, % of control at 10 µM [34]: 9%; growth, % of control at 3 µM [35]: 18.4%; growth, % of control at 0.3 µM [36]: 84.5%; GI50 [37]: 2040 nM |
